Measurements: publication PMC4914996, “Elimination of a ligand gating site generates a supersensitive olfactory receptor” (Scientific Reports, 2016)
Positions count from the first letter of the chain named. Where two headings read alike, the source gives them in different places.

Key:
Experiment in all cases: Fluo-4 Ca2+ influx through cAMP-gated CNG channel in stable HEK293 line
TAAR13c [1] = target: T1, TAAR13c (Danio rerio, UniProt Q5QNP2, D279N); format: cell-based
T1 sequence (Q5QNP2 1-341 D279N): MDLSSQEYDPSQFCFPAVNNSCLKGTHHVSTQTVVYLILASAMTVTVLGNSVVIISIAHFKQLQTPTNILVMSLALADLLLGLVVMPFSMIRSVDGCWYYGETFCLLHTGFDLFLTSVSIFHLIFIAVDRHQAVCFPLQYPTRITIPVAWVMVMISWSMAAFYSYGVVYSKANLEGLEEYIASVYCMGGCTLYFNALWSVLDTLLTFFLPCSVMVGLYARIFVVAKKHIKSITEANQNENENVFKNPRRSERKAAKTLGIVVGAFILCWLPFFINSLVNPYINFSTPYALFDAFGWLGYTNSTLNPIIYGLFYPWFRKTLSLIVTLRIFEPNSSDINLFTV
Description: (§1) Fluo-4 Ca2+ influx through cAMP-gated CNG channel in stable HEK293 line on TAAR13c

TAAR13c [2] = target: T2, TAAR13c (Danio rerio, UniProt Q5QNP2, D78E); format: cell-based
T2 sequence (Q5QNP2 1-341 D78E): T1 sequence (Q5QNP2 1-341 D279N) with D78E, N279D
Description: as §1

TAAR13c [3] = target: T3, TAAR13c (Danio rerio, UniProt Q5QNP2, D279E); format: cell-based
T3 sequence (Q5QNP2 1-341 D279E): T1 sequence (Q5QNP2 1-341 D279N) with N279E
Description: as §1

TAAR13c [4] = target: T4, TAAR13c (Danio rerio, UniProt Q5QNP2); format: cell-based
T4 sequence (Q5QNP2 1-341): T1 sequence (Q5QNP2 1-341 D279N) with N279D
Description: as §1

TAAR13c [5] = target: T5, TAAR13c (Danio rerio, UniProt Q5QNP2, D279A); format: cell-based
T5 sequence (Q5QNP2 1-341 D279A): T1 sequence (Q5QNP2 1-341 D279N) with N279A
Description: as §1

TAAR13c [6] = target: T6, TAAR13c (Danio rerio, UniProt Q5QNP2, W296G); format: cell-based; details: read-out: EC50 (μM, mean±SEM) / cad
T6 sequence (Q5QNP2 1-341 W296G): T1 sequence (Q5QNP2 1-341 D279N) with N279D, W296G
Description: as §1

TAAR13c [7] = target: T7, TAAR13c (Danio rerio, UniProt Q5QNP2, W296Y); format: cell-based
T7 sequence (Q5QNP2 1-341 W296Y): T1 sequence (Q5QNP2 1-341 D279N) with N279D, W296Y
Description: as §1

TAAR13c [8] = target: T8, TAAR13c (Danio rerio, UniProt Q5QNP2, W296F); format: cell-based, Homo sapiens
T8 sequence (Q5QNP2 1-341 W296F): T1 sequence (Q5QNP2 1-341 D279N) with N279D, W296F
Description: as §1

[9] = read-out: EC50 (μM, mean±SEM) / cad
[10] = read-out: EC50 (μM, mean±SEM) / put

Row | EC50 (TAAR13c [1]; [9]) [µM] | EC50 (TAAR13c [2]; [9]) [µM] | EC50 (TAAR13c [3]; [9]) [µM] | EC50 (TAAR13c [4]; [9]) [µM] | EC50 (TAAR13c [5]; [9]) [µM] | EC50 (TAAR13c [6]) [µM] | EC50 (TAAR13c [7]; [9]) [µM] | EC50 (TAAR13c [8]; [9]) [µM] | EC50 (TAAR13c [1]; [10]) [µM] | EC50 (TAAR13c [2]; [10]) [µM] | EC50 (TAAR13c [3]; [10]) [µM] | EC50 (TAAR13c [4]; [10]) [µM] | EC50 (TAAR13c [5]; [10]) [µM] | EC50 (TAAR13c [7]; [10]) [µM] | EC50 (TAAR13c [8]; [10]) [µM] | SMILES
1 | 1.1 ± 0.8 | 64 ± 28 | 0.72 ± 0.24 | 15.2 ± 2.2 | 2.1 ± 1 | 55 ± 48 | 28 ± 8 | 42 ± 6 | – | – | – | – | – | – | – | NCCCCCN [cadaverine]
2 | – | – | – | – | – | – | – | – | 7.3 ± 3.6 | > 1000 | 10 ± 4 | > 1000 | 31 ± 13 | > 1000 | > 1000 | NCCCCN [putrescine]
